This note sets out measurements from ChEMBL document CHEMBL1201862, “PubChem BioAssay data set” (2004).

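96-well plates; 48 h exposure; 5 concentrations. Endpoints by linear interpolation between flanking doses. Not reached: highest tested concentration assigned. Abbreviation: GI50, concentration required for 50% inhibition of growth.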 Active and inactive are the calls of the source. Cut-off read from the data, not from the text of the source: active = GI50 up to about 1.1 µM and inactive = higher.

Test systems include M14; HCT-15; HOP-92; ACHN; PC-3; Hs-578T; T47D; SN12C; SNB-19; IGROV-1; RXF 393; SNB-75; UACC-62; SK-MEL-5; KM12; OVCAR-5; K562; SK-MEL-2; MCF7; OVCAR-3.
What all share (assay): NCI-60 cell line screen, 48 h

For the molecule `NCc1ccccc1.O=C(O)NCc1ccccc1`, the GI50 in the assay on M14 is 33.9 µM (inactive); in the assay on HCT-15, 30.8 µM; with HOP-92, 19.6 µM (inactive); with ACHN it was 35.9 µM (inactive); in the assay with PC-3, 20.8 µM (inactive); in the assay on Hs-578T it was 26.1 µM (inactive). The GI50 in the assay with T47D is 23.9 µM (inactive); in the assay with SN12C, 31.8 µM (inactive); with SNB-19, 40.3 µM (inactive); in the assay with IGROV-1, 26.1 µM (inactive); in the assay with RXF 393, 38.5 µM (inactive); in the assay on SNB-75, 27.4 µM (inactive). For the same molecule, the GI50 in the assay with UACC-62 is 15.1 µM (inactive); in the assay on SK-MEL-5, 16.8 µM (inactive); with KM12, 26.2 µM (inactive); with OVCAR-5 it was 30.1 µM (inactive); with K562 it was 24.3 µM (inactive); with SK-MEL-2 it was 8.91 µM (inactive). For the same molecule, the GI50 was 34.8 µM (inactive) in the assay with MCF7 and 31.4 µM (inactive) with OVCAR-3.

For `Cc1cc2c(=Cc3ccc(N(C)C)cc3)c3ccccc3n2[n+]1C`, the GI50 in the assay on M14 was 1.05 µM (active); in the assay on HCT-15, 12.3 µM; in the assay on HOP-92, 0.459 µM (active); with ACHN, 2.23 µM (inactive); with PC-3, 0.44 µM (active); in the assay with Hs-578T, 0.628 µM (active). Also, the GI50 with T47D is 0.282 µM (active); in the assay with SN12C it was 0.304 µM (active); with SNB-19 it was 0.415 µM (active); with IGROV-1, 1.52 µM (inactive); in the assay with RXF 393, 2.09 µM (inactive); in the assay with SNB-75 it was 0.409 µM (active). Besides, the GI50 in the assay with UACC-62 was 1.4 µM (inactive); in the assay on SK-MEL-5 it was 0.414 µM (active); in the assay on KM12, 0.385 µM (active); in the assay on OVCAR-5, 5.87 µM (inactive); in the assay with K562 it was 0.227 µM (active); in the assay on SK-MEL-2, 0.652 µM (active). Also, the GI50 in the assay with MCF7 is 0.396 µM (active); in the assay with OVCAR-3, 0.313 µM (active).

`COc1cc2c(c(O)c1OC)C(O)C1CCC(=O)N1C2c1cccc2ccccc12` (stereo not given): the GI50 with M14 is > 100 µM (inactive); in the assay with HCT-15, more than 100 µM; with HOP-92, > 100 µM (inactive); in the assay on ACHN it was 82.2 µM (inactive); with PC-3 it was 49.7 µM (inactive); in the assay on Hs-578T, 48 µM (inactive). Besides, the GI50 is > 100 µM (inactive) with T47D; > 100 µM (inactive) in the assay on SN12C; > 100 µM (inactive) in the assay with SNB-19; > 100 µM (inactive) in the assay with IGROV-1; 57.9 µM (inactive) in the assay with RXF 393; 27 µM (inactive) in the assay on SNB-75. For the same molecule, the GI50 in the assay with UACC-62 was > 100 µM (inactive); in the assay with SK-MEL-5 it was > 100 µM (inactive); in the assay on KM12, 34.9 µM (inactive); with OVCAR-5, > 100 µM (inactive); in the assay on K562, > 100 µM (inactive); in the assay on SK-MEL-2 it was > 100 µM (inactive). In addition, the GI50 with MCF7 and with OVCAR-3 was > 100 µM (inactive) each time.

For `O=C1OC2C(O)COC2(O)C1(O)C(C[N+](=O)[O-])c1ccc(Cl)cc1` (stereo not given), the GI50 in the assay with M14 was 2.58 µM (inactive); in the assay on HCT-15 it was 6.84 µM; with HOP-92, 28.7 µM (inactive); with ACHN it was 12.4 µM (inactive); with PC-3, 17 µM (inactive); in the assay with Hs-578T, 13.4 µM (inactive). In addition, the GI50 with T47D was 13.8 µM (inactive); in the assay with SN12C, 13.7 µM (inactive); in the assay with SNB-19 it was 15.2 µM (inactive); in the assay on IGROV-1, 9.38 µM (inactive); with RXF 393, 3.29 µM (inactive); with SNB-75, 9.35 µM (inactive). Besides, the GI50 is 10 µM (inactive) in the assay on UACC-62; 8.17 µM (inactive) in the assay with SK-MEL-5; 7.36 µM (inactive) in the assay with KM12; 16.4 µM (inactive) with OVCAR-5; 2.96 µM (inactive) with K562; 15.7 µM (inactive) in the assay on SK-MEL-2. In addition, the GI50 is 1.98 µM (inactive) in the assay with MCF7 and 7.19 µM (inactive) in the assay with OVCAR-3.

With `Cc1cc(/N=C/c2ccc(Cl)cc2)n(-c2ccccc2)n1`, the GI50 is 48.6 µM (inactive) in the assay on M14; 19 µM in the assay on HCT-15; 48 µM (inactive) in the assay on HOP-92; 47.2 µM (inactive) in the assay on ACHN; 53.8 µM (inactive) in the assay on PC-3; 58.7 µM (inactive) with Hs-578T. Also, the GI50 is 16.7 µM (inactive) with T47D; 39.4 µM (inactive) with SN12C; 61.1 µM (inactive) in the assay with SNB-19; 45.7 µM (inactive) in the assay on IGROV-1; 22.9 µM (inactive) with RXF 393; 32.4 µM (inactive) in the assay on SNB-75. Also, the GI50 in the assay on UACC-62 was 54.2 µM (inactive); in the assay on SK-MEL-5, 27.6 µM (inactive); in the assay with KM12, 23.4 µM (inactive); in the assay with OVCAR-5, 87.5 µM (inactive); in the assay on K562 it was 12.9 µM (inactive); in the assay on SK-MEL-2 it was 53.5 µM (inactive). Moreover, the GI50 in the assay on MCF7 was 32.2 µM (inactive); in the assay on OVCAR-3, 22.8 µM (inactive).

Turning to `O=C(C1OC1c1cccc([N+](=O)[O-])c1)C12CC3CC(CC(C3)C1)C2` (stereo not given), the GI50 with M14 is 8.99 µM (inactive); in the assay with HCT-15, 4.3 µM; in the assay with HOP-92, 10.9 µM (inactive); in the assay with ACHN, 9.59 µM (inactive); with PC-3, 5.5 µM (inactive); with Hs-578T it was 3.66 µM (inactive). Also, the GI50 in the assay on T47D was 11.7 µM (inactive); in the assay on SN12C, 4.2 µM (inactive); with SNB-19, 8.13 µM (inactive); in the assay on IGROV-1, 6.53 µM (inactive); with RXF 393, 5.33 µM (inactive); in the assay on SNB-75 it was 6.78 µM (inactive). For the same molecule, the GI50 with UACC-62 is 3.74 µM (inactive); in the assay with SK-MEL-5, 10.5 µM (inactive); in the assay on KM12 it was 3.78 µM (inactive); in the assay with OVCAR-5, 7.21 µM (inactive); with K562, 2.58 µM (inactive); with SK-MEL-2, 14.3 µM (inactive). In addition, the GI50 in the assay on MCF7 was 2.86 µM (inactive); in the assay with OVCAR-3 it was 3.81 µM (inactive).

For `CCOC(=O)NC(Nc1ccc([N+](=O)[O-])cc1)(C(F)(F)F)C(F)(F)F`, the GI50 is 60.4 µM (inactive) in the assay on M14; 70.6 µM in the assay on HCT-15; 31.1 µM (inactive) with HOP-92; > 100 µM (inactive) in the assay with ACHN; 53.1 µM (inactive) in the assay with PC-3; 33.9 µM (inactive) in the assay on Hs-578T. Further, the GI50 in the assay with T47D was 58.3 µM (inactive); in the assay with SN12C it was > 100 µM (inactive); in the assay with SNB-19 it was > 100 µM (inactive); with IGROV-1, 70.5 µM (inactive); in the assay with RXF 393, 12 µM (inactive); in the assay on SNB-75, > 100 µM (inactive). Also, the GI50 with UACC-62 was 95.1 µM (inactive); with SK-MEL-5 it was 81.3 µM (inactive); in the assay with KM12, 82.2 µM (inactive); with OVCAR-5, > 100 µM (inactive); in the assay with K562, 53.8 µM (inactive); with SK-MEL-2, > 100 µM (inactive). The figures for the GI50 with MCF7 and in the assay on OVCAR-3 were 60.7 µM (inactive) and 65.8 µM (inactive), respectively.

As for `CC(=O)NC1C(OCc2ccccc2)OC(CO)C(O)C1OCC(=O)NC(C)C(=O)NC(CCC(=O)Nc1ccc2c(c1)CN1C(=O)c3ccccc3C1=N2)C(N)=O` (stereo not given), the GI50 in the assay on M14 was > 100 µM (inactive); with HCT-15 it was more than 100 µM; with HOP-92, 76.7 µM (inactive); with ACHN, > 100 µM (inactive); in the assay on PC-3 it was > 100 µM (inactive); in the assay on Hs-578T, > 100 µM (inactive). Also, the GI50 in the assay on T47D was 42.8 µM (inactive); with SN12C it was > 100 µM (inactive); with SNB-19 it was > 100 µM (inactive); in the assay on IGROV-1 it was > 100 µM (inactive); with RXF 393 it was > 100 µM (inactive); with SNB-75 it was > 100 µM (inactive). The GI50 in the assay on UACC-62, in the assay with SK-MEL-5, with KM12, with OVCAR-5, with K562 and with SK-MEL-2 was > 100 µM (inactive) throughout. The figures for the GI50 in the assay on MCF7 and with OVCAR-3 were 53.2 µM (inactive) and > 100 µM (inactive), respectively.

In the case of `Oc1cc(Br)cc2cc(Cl)cnc12`, the GI50 in the assay on M14 was 1.35 µM (inactive); in the assay with HCT-15, 0.665 µM; with HOP-92, 23.4 µM (inactive); in the assay with ACHN, 1.95 µM (inactive); with PC-3 it was 3.59 µM (inactive); with Hs-578T it was 0.845 µM (active). The GI50 with T47D was 3.21 µM (inactive); in the assay on SN12C, 3.13 µM (inactive); with SNB-19 it was 3.11 µM (inactive); in the assay with IGROV-1, 1.26 µM (inactive); with RXF 393 it was 1.95 µM (inactive); in the assay on SNB-75, 8.2 µM (inactive). For the same molecule, the GI50 with UACC-62 was 2.08 µM (inactive); in the assay on SK-MEL-5, 1.71 µM (inactive); with KM12, 4.06 µM (inactive); in the assay with OVCAR-5, 18.7 µM (inactive); in the assay with K562, 0.627 µM (active); in the assay with SK-MEL-2 it was 22.3 µM (inactive). In addition, the GI50 was 3.33 µM (inactive) in the assay with MCF7 and 1.95 µM (inactive) with OVCAR-3.

On to `COC(=O)[C@H](COC(=O)/C=C/c1ccc(OC(C)=O)c(OC(C)=O)c1)NC(=O)/C=C/c1ccc(OC(C)=O)c(OC(C)=O)c1`, for which the GI50 with M14 was 21.2 µM (inactive); in the assay on HCT-15, 18.8 µM; in the assay with HOP-92, 22.2 µM (inactive); in the assay on ACHN it was 18 µM (inactive); in the assay with PC-3, 15 µM (inactive); in the assay on Hs-578T, 21.7 µM (inactive). Besides, the GI50 is 2.81 µM (inactive) in the assay with T47D; 18.8 µM (inactive) in the assay with SN12C; 15.8 µM (inactive) in the assay with SNB-19; 18.5 µM (inactive) in the assay with IGROV-1; 28.5 µM (inactive) in the assay on RXF 393; 14.6 µM (inactive) in the assay with SNB-75. Besides, the GI50 in the assay with UACC-62 is 15 µM (inactive); with SK-MEL-5 it was 16.4 µM (inactive); in the assay on KM12, 16.2 µM (inactive); in the assay on OVCAR-5, 23.4 µM (inactive); with K562, > 100 µM (inactive); in the assay on SK-MEL-2, 18.5 µM (inactive). Further, the GI50 with MCF7 is 38.4 µM (inactive); in the assay with OVCAR-3 it was 16.4 µM (inactive).
